Laboratory results published in publication PMC10283505, “CVM-1118 (foslinanib), a 2-phenyl-4-quinolone derivative, promotes apoptosis and inhibits vasculogenic mimicry via targeting TRAP1” (Pathology and Oncology Research, 2023).

Columns and labels:
[1] = Pharmacokinetic study of oral CVM-1118 in mouse (plasma, LC-MS/MS); format: in vivo, male CD-1 mice; details: for AUC(0-inf) / AUC(0-t) / Cmax / MRT / Tmax / half-life: mouse, analyte in plasma after single oral CVM-1118 30 mg/kg in 9% NaHCO3, fasted male CD-1 mice; for half-life: read-out: T1/2 (terminal half-life) (converted)
Protocol: Supplementary Results on Pharmacokinetic study of oral CVM-1118 in Mouse Method: The pharmacokinetics of CVM-1118 and CVM-1125 were investigated in male CD-1 mice following a single oral administration of CVM-1118 at 30 mg/kg in 9% NaHCO3 in fasted mice. At pre-determined time points, plasma samples were collected and stored at -20°C prior to measurement of CVM-1118 and CVM-1125 concentrations using an LC-MS/MS method. The plasma samples were collected at 0, 0.25, 0.5, 1, 2, 4, 8, 12, 24 and 27 h after dosing with 3 mice per group at each time […]
Result: For single oral administration of 30 mg/kg CVM-1118 in 9% NaHCO3 solution, […]
from CVM-1118 to CVM-1125 occurred very rapidly.
1118 and CVM-1125. The drug exposure (AUC0-inf) of CVM-1118 was low (7 ng·h/mL), indicating rapid conversion to CVM-1125 following oral dosing (AUC0-inf of TRX-818M1 was 287 ng·h/mL). The terminal half-life of CVM-1118 and CVM-1125 were 0.7 h and 8.3 h, respectively. The oral bioavailability of CVM-1118 was low (~3%), […]
1118, was considered favorable.
Mean plasma concentrations-time curves of CVM-1118 and CVM-1125 following a single dose of CVM-1118 in male CD-1 mice
(1 picture or pasted object on this page, not shown here)

[2] = test system: OVCAR-4; assay: NCI 60 cytotoxicity screening; format: cell-based; details: Homo sapiens; OVCAR-4, Ovarian
[3] = test system: SK-OV-3; assay: NCI 60 cytotoxicity screening; format: cell-based; details: Homo sapiens; SK-OV-3, Ovarian
[4] = test system: nine selected human cancer cell lines; assay: Cytotoxicity assay, panel of nine selected human cancer cell lines; format: cell-based; details: all nine cell lines of Table 1
Protocol: (§1) This assay was conducted in ProQinase GmbH (Freiburg, Germany). Nine cancer cell lines (A549, DU-145, HT-29, MDA-MB-231, MDA-MB-435, Mia PaCa-2, NCI-ADR-RES, SK-N-MC, and U118MG) were seeded at 5,000 cells/well in 96-well cell culture plates in 150 µL of complete medium for 24 h prior to treatment. The test compounds CVM-1118 and CVM-1125 were synthesized by China Medical University, Chengdu Chempartner Co., Ltd., and Formosa Laboratories, Inc. To prepare the assay, the compounds were dissolved in 100% DMSO at a concentration of […]. Cells were then treated with vehicle, CVM-1118 or CVM-1125 at various concentrations for 72 h. Cell viability was determined by the fluorescent quantification of Alamar Blue (Invitrogen, Thermo Fisher Scientific). By the end of incubation, Alamar Blue reagent was added to the well for 4 h and the fluorescence was measured at 590 nm. The amount of fluorescence produced is proportional to the number of metabolically active cells. IC50 determination was performed using a variable slope sigmoidal response fitting model with 0% cell growth as a bottom constraint and 100% cell growth as a top constraint (GraphPad Prism, United States).

[5] = test system: DU-145; assay: NCI 60 cytotoxicity screening; format: cell-based; details: Homo sapiens; DU-145, Prostate
[6] = test system: MDA-MB-435; assay: Cytotoxicity assay (Alamar Blue, 72 h); format: cell-based; details: Homo sapiens, MDA-MB-435 (Melanoma)
Protocol: (§2) For cytotoxicity and cell cycle analysis, the following cell lines were used, and their culture conditions were as described: for A549, DU-145, HT-29, MDA-MB-231, Mia PaCa-2, and U118MG, cells were cultured in DMEM containing 10% FCS; for MDA- MB-435 and NCI-ADR-RES, cells were cultured in RPMI-1640 containing 10% FCS, and for SK-N-MC, cells were cultured in MEM containing 10% FCS. For the animal pharmacology study, HCT-116, a colon cancer cell line was tested. Cells were cultured in McCoy’s 5a medium supplemented with 10% heat inactivated fetal bovine serum. For the cell lines used in VM analysis and target identification, C8161 and COLO205 cells were maintained in RPMI-1640 containing 10% FBS and 0.1% gentamycin sulfate. The SKOV3 line was cultured in RPMI-1640 supplemented with 15% FBS and 0.1% gentamycin sulfate. For the SK-MEL28 and MCF-7, cells were maintained in MEM/Earles Salts supplemented with 10% FBS and 0.1% gentamycin sulfate.
as §1

[7] = test system: MDA-MB-231; assay: Cytotoxicity assay (Alamar Blue, 72 h); format: cell-based; details: Homo sapiens, MDA-MB-231 (Breast)
Protocol: as §2, §1

[8] = test system: Mia PaCa-2; assay: Cytotoxicity assay (Alamar Blue, 72 h); format: cell-based; details: Homo sapiens, Mia PaCa-2 (Pancreatic)
Protocol: as §2, §1

[9] = test system: U118MG; assay: Cytotoxicity assay (Alamar Blue, 72 h); format: cell-based; details: Homo sapiens, U-118-MG, U118MG (Glioma)
Protocol: as §2, §1

[10] = test system: NCI-ADR-RES; assay: Cytotoxicity assay (Alamar Blue, 72 h); format: cell-based; details: Homo sapiens, NCI-ADR-RES (Ovarian)
Protocol: as §2, §1

[11] = test system: HT-29; assay: Cytotoxicity assay (Alamar Blue, 72 h); format: cell-based; details: Homo sapiens, HT-29 (Colon)
Protocol: as §2, §1

[12] = test system: SK-N-MC; assay: Cytotoxicity assay (Alamar Blue, 72 h); format: cell-based; details: Homo sapiens, SK-N-MC (Neuroblastoma)
Protocol: as §2, §1

[13] = test system: DU-145; assay: Cytotoxicity assay (Alamar Blue, 72 h); format: cell-based; details: Homo sapiens, DU-145 (Prostate)
Protocol: as §2, §1

[14] = test system: A549; assay: Cytotoxicity assay (Alamar Blue, 72 h); format: cell-based; details: Homo sapiens, A549 (Lung)
Protocol: as §2, §1

With COc1ccc2[nH]c(-c3cccc(F)c3)cc(=O)c2c1O [CVM-1125] the AUC(0-inf) [1] was 287 ng·h/mL, the AUC(0-t) [1] was 279 ng·h/mL and the Cmax [1] was 349 ng/mL. For the same compound, the MRT [1] was 180 min, the Tmax [1] was 15 min and the half-life [1] was 498 min. For the same compound, the GI50 [2] was 43.6 nM, the GI50 [3] was 35.6 nM and the IC50 [4] was under 50 nM. It also gave a GI50 [5] of 21.1 nM, an IC50 [6] of 5 nM and an IC50 [7] of 14 nM. It also gave an IC50 [8] of 7 nM, an IC50 [9] of 8 nM and an IC50 [10] of 14 nM. It also gave an IC50 [11] of 17 nM, an IC50 [12] of 8 nM and an IC50 [13] of 27 nM. The IC50 [14] was 29 nM.

In the case of COc1ccc2[nH]c(-c3cccc(F)c3)cc(=O)c2c1OP(=O)(O)O [CVM-1118], the bioavailability ([1]; male, CD-1, mouse, plasma, po, 30 mg/kg, single oral CVM-1118 30 mg/kg in 9% NaHCO3, fasted male CD-1 mice, read-out: F (oral bioavailability)) is reported as about 3%, the AUC(0-inf) [1] is reported as 7 ng·h/mL and the AUC(0-t) [1] is reported as 7 ng·h/mL. It also gave a Cmax [1] of 21 ng/mL, an MRT [1] of 36 min and a Tmax [1] of 15 min. For the same compound, the half-life [1] was 42 min, the “F (oral bioavailability)” value ([1]; single oral CVM-1118 30 mg/kg in 9% NaHCO3, fasted male CD-1 mice, 30 mg/kg) was 2.96% and the IC50 [4] was under 50 nM. For the same compound, the IC50 [6] was 4 nM, the IC50 [7] was 18 nM and the IC50 [8] was 11 nM. It also gave an IC50 [9] of 10 nM, an IC50 [10] of 14 nM and an IC50 [11] of 15 nM. It also gave an IC50 [12] of 9 nM, an IC50 [13] of 21 nM and an IC50 [14] of 26 nM.
